Measurements taken from US5202315A, “Cephalosporin compounds” (Lucky, Ltd., priority 1989, dated 1993).
Values after ≈ are worked out from the molar mass of the structure shown.

Columns and labels:
Assay in all cases: Antibacterial activity, MIC
Type in all cases: cell-based
[1] = test system: Morganella morganii ATCC 8076h; settings: ATCC8076H, agar two-fold dilution, 37° C., 20 hours
Protocol: (§1) Also, the in vitro antibacterial activity was determined by the by a two-fold dilution method as described below:
(§2) That is, the two-fold serial dilutions of the compound were made dispersed in Muller-Hinton agar medium. 2 μl of standard test strain which had the 10^7 CFU per ml was inoculated on the medium, and was incubated at 37° C. for 20 hours.

[2] = test system: Staphylococcus epidermidis ATCC 12228; settings: ATCC12228, ATCC 12228, agar two-fold dilution, 37° C., 20 hours, read-out: MIC
Protocol: as §1, §2

[3] = test system: Enterobacter cloacae ATCC 27508; settings: ATCC27508, ATCC 27508, agar two-fold dilution, 37° C., 20 hours, read-out: MIC
Protocol: as §1, §2

[4] = test system: Pseudomonas aeruginosa ATCC 25619; settings: ATCC25619, ATCC 25619, agar two-fold dilution, 37° C., 20 hours, read-out: MIC
Protocol: as §1, §2

[5] = test system: Klebsiella pneumoniae ATCC 10031; settings: ATCC10031, ATCC 10031, agar two-fold dilution, 37° C., 20 hours, read-out: MIC
Protocol: as §1, §2

[6] = test system: Salmonella typhimurium ATCC 14028; settings: Salmonella enterica; ATCC 14028; agar two-fold dilution, 37° C., 20 hours; read-out: MIC
Protocol: as §1, §2

[7] = test system: Micrococcus luteus ATCC 9341; settings: ATCC9341, ATCC 9341, agar two-fold dilution, 37° C., 20 hours, read-out: MIC
Protocol: as §1, §2

[8] = test system: Proteus vulgaris ATCC 6059; settings: ATCC6059, ATCC 6059, agar two-fold dilution, 37° C., 20 hours, read-out: MIC
Protocol: as §1, §2

[9] = test system: Shigella sonnei ATCC 11060; settings: ATCC11060, ATCC 11060, agar two-fold dilution, 37° C., 20 hours, read-out: MIC
Protocol: as §1, §2

[10] = test system: Shigella flexneri ATCC 11836; settings: ATCC11836, agar two-fold dilution, 37° C., 20 hours
Protocol: as §1, §2

[11] = test system: Proteus mirabilis ATCC 25933; settings: ATCC25933, ATCC 25933, agar two-fold dilution, 37° C., 20 hours, read-out: MIC
Protocol: as §1, §2

[12] = test system: Serratia marcescens ATCC 27117; settings: ATCC27117, ATCC 27117, agar two-fold dilution, 37° C., 20 hours, read-out: MIC
Protocol: as §1, §2

[13] = test system: Providencia rettgeri ATCC 9250; settings: ATCC9250, agar two-fold dilution, 37° C., 20 hours
Protocol: as §1, §2

[14] = test system: Enterobacter aerogenes ATCC 29751; settings: Klebsiella aerogenes, ATCC29751; ATCC 29751; agar two-fold dilution, 37° C., 20 hours; read-out: MIC
Protocol: as §1, §2

[15] = test system: Pseudomonas aeruginosa ATCC 27853; settings: ATCC27853, ATCC 27853, agar two-fold dilution, 37° C., 20 hours, read-out: MIC
Protocol: as §1, §2

[16] = test system: Bacillus megaterium ATCC 9885; settings: Priestia megaterium, ATCC9885; ATCC 9885; agar two-fold dilution, 37° C., 20 hours; read-out: MIC
Protocol: as §1, §2

[17] = test system: Staphylococcus aureus ATCC 10537; settings: ATCC10537, ATCC 10537, agar two-fold dilution, 37° C., 20 hours, read-out: MIC
Protocol: as §1, §2

[18] = test system: Citrobacter freundii ATCC 8090; settings: ATCC8090, ATCC 8090, agar two-fold dilution, 37° C., 20 hours, read-out: MIC
Protocol: as §1, §2

[19] = test system: Escherichia coli ATCC 25922; settings: ATCC25922, agar two-fold dilution, 37° C., 20 hours
Protocol: as §1, §2

[20] = test system: Pseudomonas aeruginosa ATCC 10145; settings: ATCC10145, ATCC 10145, agar two-fold dilution, 37° C., 20 hours, read-out: MIC
Protocol: as §1, §2

[21] = test system: Streptococcus faecalis ATCC 29212; settings: Enterococcus faecalis, ATCC29212; ATCC 29212; agar two-fold dilution, 37° C., 20 hours; read-out: MIC
Protocol: as §1, §2

[22] = test system: Bacillus cereus ATCC 11778; settings: ATCC11778, ATCC 11778, agar two-fold dilution, 37° C., 20 hours, read-out: MIC
Protocol: as §1, §2

[23] = test system: Staphylococcus aureus ATCC 6538p; settings: ATCC6538P, ATCC 6538p, agar two-fold dilution, 37° C., 20 hours, read-out: MIC
Protocol: as §1, §2

[24] = test system: Escherichia coli ATCC 10536; settings: ATCC10536, agar two-fold dilution, 37° C., 20 hours
Protocol: as §1, §2

[25] = test system: Acinetobacter calcoaceticus ATCC 15473; settings: ATCC15473, ATCC 15473, agar two-fold dilution, 37° C., 20 hours, read-out: MIC
Protocol: as §1, §2

Compound: CC[n+]1c(N)cc(N)nc1SCC1=C(C(=O)[O-])N2C(=O)C(NC(=O)/C(=N\OC)c3nsc(N)n3)C2SC1 (stereo not shown) [Compound I-25]
- MIC [1]: 0.031 µg/mL (≈ 0.0547 µM)
- MIC [2]: 0.13 µg/mL (≈ 0.229 µM)
- MIC [3]: 0.031 µg/mL (≈ 0.0547 µM)
- MIC [4]: 4 µg/mL (≈ 7.06 µM)
- MIC [5]: 0.031 µg/mL (≈ 0.0547 µM)
- MIC [6]: 0.25 µg/mL (≈ 0.441 µM)
- MIC [7]: 0.031 µg/mL (≈ 0.0547 µM)
- MIC [8]: 1 µg/mL (≈ 1.76 µM)
- MIC [9]: 0.13 µg/mL (≈ 0.229 µM)
- MIC [10]: 0.031 µg/mL (≈ 0.0547 µM)
- MIC [11]: 1 µg/mL (≈ 1.76 µM)
- MIC [12]: 0.25 µg/mL (≈ 0.441 µM)
- MIC [13]: 0.016 µg/mL (≈ 0.0282 µM)
- MIC [14]: 1 µg/mL (≈ 1.76 µM)
- MIC [15]: 4 µg/mL (≈ 7.06 µM)
- MIC [16]: 0.13 µg/mL (≈ 0.229 µM)
- MIC [17]: 0.5 µg/mL (≈ 0.882 µM)
- MIC [18]: 0.13 µg/mL (≈ 0.229 µM)
- MIC [19]: 0.13 µg/mL (≈ 0.229 µM)
- MIC [20]: 16 µg/mL (≈ 28.2 µM)
- MIC [21]: 32 µg/mL (≈ 56.5 µM)
- MIC [22]: 32 µg/mL (≈ 56.5 µM)
- MIC [23]: 0.5 µg/mL (≈ 0.882 µM)
- MIC [24]: 0.13 µg/mL (≈ 0.229 µM)
- MIC [25]: 2 µg/mL (≈ 3.53 µM)

Compound: C[n+]1c(N)cc(N)nc1SCC1=C(C(=O)[O-])N2C(=O)C(NC(=O)/C(=N\OC(C)(C)C(=O)O)c3nsc(N)n3)C2SC1 (stereo not shown) [Compound I-26]
- MIC [1]: ≤ 0.008 µg/mL
- MIC [2]: 4 µg/mL (≈ 6.4 µM)
- MIC [3]: 0.031 µg/mL (≈ 0.0496 µM)
- MIC [4]: 2 µg/mL (≈ 3.2 µM)
- MIC [5]: 0.13 µg/mL (≈ 0.208 µM)
- MIC [6]: 0.5 µg/mL (≈ 0.8 µM)
- MIC [7]: 1 µg/mL (≈ 1.6 µM)
- MIC [8]: 0.13 µg/mL (≈ 0.208 µM)
- MIC [9]: 0.13 µg/mL (≈ 0.208 µM)
- MIC [10]: 0.063 µg/mL (≈ 0.101 µM)
- MIC [11]: 0.13 µg/mL (≈ 0.208 µM)
- MIC [12]: 0.25 µg/mL (≈ 0.4 µM)
- MIC [13]: ≤ 0.008 µg/mL
- MIC [14]: 1 µg/mL (≈ 1.6 µM)
- MIC [15]: 2 µg/mL (≈ 3.2 µM)
- MIC [16]: 1 µg/mL (≈ 1.6 µM)
- MIC [17]: 8 µg/mL (≈ 12.8 µM)
- MIC [18]: 0.13 µg/mL (≈ 0.208 µM)
- MIC [19]: 0.13 µg/mL (≈ 0.208 µM)
- MIC [20]: 2 µg/mL (≈ 3.2 µM)
- MIC [21]: > 128 µg/mL
- MIC [22]: > 128 µg/mL
- MIC [23]: 8 µg/mL (≈ 12.8 µM)
- MIC [24]: 0.13 µg/mL (≈ 0.208 µM)
- MIC [25]: 4 µg/mL (≈ 6.4 µM)

Compound: CC[n+]1c(N)cc(N)nc1SCC1=C(C(=O)[O-])N2C(=O)C(NC(=O)/C(=N\OC(C)(C)C(=O)O)c3nsc(N)n3)C2SC1 (stereo not shown) [Compound I-27]
- MIC [1]: ≤ 0.008 µg/mL
- MIC [2]: 4 µg/mL (≈ 6.26 µM)
- MIC [3]: 0.063 µg/mL (≈ 0.0986 µM)
- MIC [4]: 2 µg/mL (≈ 3.13 µM)
- MIC [5]: 0.063 µg/mL (≈ 0.0986 µM)
- MIC [6]: 0.5 µg/mL (≈ 0.783 µM)
- MIC [7]: 0.5 µg/mL (≈ 0.783 µM)
- MIC [8]: 0.13 µg/mL (≈ 0.204 µM)
- MIC [9]: 0.13 µg/mL (≈ 0.204 µM)
- MIC [10]: 0.25 µg/mL (≈ 0.391 µM)
- MIC [11]: 0.13 µg/mL (≈ 0.204 µM)
- MIC [12]: 0.25 µg/mL (≈ 0.391 µM)
- MIC [13]: ≤ 0.008 µg/mL
- MIC [14]: 2 µg/mL (≈ 3.13 µM)
- MIC [15]: 2 µg/mL (≈ 3.13 µM)
- MIC [16]: 1 µg/mL (≈ 1.57 µM)
- MIC [17]: 4 µg/mL (≈ 6.26 µM)
- MIC [18]: 0.25 µg/mL (≈ 0.391 µM)
- MIC [19]: 0.13 µg/mL (≈ 0.204 µM)
- MIC [20]: 4 µg/mL (≈ 6.26 µM)
- MIC [21]: > 128 µg/mL
- MIC [22]: > 128 µg/mL
- MIC [23]: 8 µg/mL (≈ 12.5 µM)
- MIC [24]: 0.13 µg/mL (≈ 0.204 µM)
- MIC [25]: 8 µg/mL (≈ 12.5 µM)

Compound: CCC[n+]1c(N)cc(N)nc1SCC1=C(C(=O)[O-])N2C(=O)C(NC(=O)/C(=N\OC(C)(C)C(=O)O)c3nsc(N)n3)C2SC1 (stereo not shown) [Compound I-28]
- MIC [1]: ≤ 0.008 µg/mL
- MIC [2]: 4 µg/mL (≈ 6.13 µM)
- MIC [3]: 0.031 µg/mL (≈ 0.0475 µM)
- MIC [4]: 2 µg/mL (≈ 3.06 µM)
- MIC [5]: 0.13 µg/mL (≈ 0.199 µM)
- MIC [6]: 0.5 µg/mL (≈ 0.766 µM)
- MIC [7]: 0.5 µg/mL (≈ 0.766 µM)
- MIC [8]: 0.25 µg/mL (≈ 0.383 µM)
- MIC [9]: 0.13 µg/mL (≈ 0.199 µM)
- MIC [10]: 0.063 µg/mL (≈ 0.0965 µM)
- MIC [11]: 0.13 µg/mL (≈ 0.199 µM)
- MIC [12]: 0.25 µg/mL (≈ 0.383 µM)
- MIC [13]: ≤ 0.008 µg/mL
- MIC [14]: 4 µg/mL (≈ 6.13 µM)
- MIC [15]: 2 µg/mL (≈ 3.06 µM)
- MIC [16]: 0.25 µg/mL (≈ 0.383 µM)
- MIC [17]: 4 µg/mL (≈ 6.13 µM)
- MIC [18]: 0.13 µg/mL (≈ 0.199 µM)
- MIC [19]: 0.13 µg/mL (≈ 0.199 µM)
- MIC [20]: 4 µg/mL (≈ 6.13 µM)
- MIC [21]: > 128 µg/mL
- MIC [22]: 128 µg/mL (≈ 196 µM)
- MIC [23]: 8 µg/mL (≈ 12.3 µM)
- MIC [24]: 0.13 µg/mL (≈ 0.199 µM)
- MIC [25]: 8 µg/mL (≈ 12.3 µM)
